In patent US20240408119A1, “DELIVERY OF THERAPEUTIC ALKALOID COMPOUNDS” (priority 2022, published 2024):
Where two headings read alike, the source gives them in different places.

Columns and labels:
[1] = fermentation, exposure to light, exposure to heat, aqueous medium; cited from earlier work
[2] = Metabolic Stability in Human Hepatocytes; assay type: in vitro ADME; conditions: cryopreserved human hepatocytes, 37° C.
Procedure, shortened: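 Cryopreserved human hepatocytes at 5×10^5 viable cells/mL in serum-free medium, 100 μM compound stock added 1:100, 37° C. with shaking, sampled 0.5–120 min. Acetonitrile quench, LC-MS/MS; t1/2 = 0.693/k from regression slope, CLint = kV/N in μL/min/10^6 cells.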

in vivo [3] = assay type: in vivo, mouse; conditions: 001 (metabolite) in brain after 321 IV 2 mg/kg
Experimental: Total fifteen male mice were used in this study with n=3 mice/time point with sparse sampling study design. Animals were administered through intravenous route with solution formulation of 321 at 2 mg/kg dose.
(§1) The extraction procedure for plasma/brain samples and the spiked plasma/brain calibration standards were identical (PMSF Stabilized Plasma and Brain used for Preparation of calibration standards): A 20 μL of study sample plasma/brain or spiked plasma/brain calibration standard was added to individual pre-labeled micro-centrifuge tubes followed by 200 μL of internal standard prepared in acetonitrile (Rosuvastatin, 50 ng/mL) was added except for blank, where 200 μL of acetonitrile was added. Samples were vortexed for 5 minutes. Samples were centrifuged for 10 minutes at a speed of 4000 rpm at 4° C. Following centrifugation, 200 μL of clear supernatant was transferred in 96 well plates and analyzed using LC-MS/MS.
(§2) Brain samples were diluted (1-part of tissue: 2-part of buffer) and homogenized. The homogenate was submitted for bioanalysis and the concentrations (ng/mL) received were corrected with dilution factor (3×) and the final reported concentrations were represented in ng/g.
The plasma and brain concentration-time data of 321 and 001 were used for the pharmacokinetic analysis.
LLOQ: 321: 1.02 ng/mL for plasma and brain 001: 1.01 ng/mL for plasma and brain

in vivo [4] = assay type: in vivo, mouse; conditions: 001 (metabolite) in brain after 323 IV 2 mg/kg
Experimental: Total fifteen male mice were used in this study with n=3 mice/time point with sparse sampling study design. Animals were administered through intravenous route with solution formulation of 323 at 2 mg/kg dose.
as §1, with “(Rosuvastatin+Cetrizine,” for “(Rosuvastatin,”
as §2
The plasma and brain concentration-time data of 323 and 001 were used for the pharmacokinetic analysis.
LLOQ: 323: 1.02 ng/mL for plasma and brain 001: 1.01 ng/mL for plasma and brain

[5] = Pharmacokinetics of 358, single IV in male C57BL/6 mice; assay type: in vivo, mouse
Experimental: Total fifteen male mice were used in this study with n=3 mice/time point with sparse sampling study design. Animals were administered through intravenous route with solution formulation of 358 at 2 mg/kg dose.
The extraction procedure for plasma/brain samples and the spiked plasma/brain calibration standards were identical (PMSF Stabilized Plasma and Brain used for Preparation of calibration standards):
A 20 μL of study sample plasma/brain or spiked plasma/brain calibration standard was added to individual pre-labeled micro-centrifuge tubes followed by 200 μL of internal standard prepared in acetonitrile (Rosuvastatin+Cetrizine, 50 ng/mL) was added except for blank, where 200 μL of acetonitrile was added. Samples were vortexed for 5 minutes. Samples were centrifuged for 10 minutes at a speed of 4000 rpm at 4° C. Following centrifugation, 200 μL of clear supernatant was transferred in 96 well plates and analyzed using LC-MS/MS.
Note: Brain samples were diluted (1-part of tissue: 2-part of buffer) and homogenized. The homogenate was submitted for bioanalysis and the concentrations (ng/mL) received were corrected with dilution factor (3×) and the final reported concentrations were represented in ng/g.
The plasma and brain concentration-time data of 358 and 001 were used for the pharmacokinetic analysis.
LLOQ: 358: 1.02 ng/mL for plasma and brain 001: 1.01 ng/mL for plasma and brain

[6] = in vivo; cited from earlier work
[7] = Hydrolysis Assay - Condition 1 (SGF); assay type: physicochemical; conditions: SGF with pepsin pH 1.5, 37° C., 0.5 mM
Experimental: 50 μL of compound (10 mM) in DMSO was diluted into 950 μL of Simulated Gastric Fluid (SGF) with pepsin (pH 1.5) to a final concentration of 0.5 mM. The hydrolysis kinetics were conducted at 37° C. and measured by LCMS at a certain time interval.
(§3) The corresponding LCMS chromatogram were recorded and the conversions were calculated by integration of each peak.
(§4) • 1) LCMS spectra were obtained using Agilent 1200G1956A or SHIMADZU LCMS-2020. Standard LCMS conditions were as follows (running time 1.55 minutes): • Acidic condition: Mobile Phase A: 0.0375% TFA in water (v/v). Mobile Phase B: 0.01875% TFA in acetonitrile (v/v); Column: Kinetex EVO C18 30*2.1 mm, 5 μm. • Basic condition: Mobile Phase A: 0.025% NH3·H2O in water (v/v). Mobile Phase B: Acetonitrile; Column: Kinetex EVO C18 2.1×30 mm, 5 μm. • 2) Conversion (%)=peak area 1/(peak area 1+peak area 2)*100%, peak area 1 is the integration of hydrolyzed product, peak area 2 is the integration of starting material.

[8] = Hydrolysis Assay - Condition 2 (DI Water); assay type: physicochemical; conditions: 25° C., 0.5 mM
Experimental: 50 μL of compound (10 mM) in DMSO was diluted into 950 μL of DI water to a final concentration of 0.5 mM. The hydrolysis kinetics were conducted at 25° C. and measured by LCMS at a certain time interval.
as §3, §4

[9] = assay type: in vitro ADME, mouse; conditions: prodrug remaining, 5 μM, 37° C.
Experimental: (§5) Each test was carried out in duplicate for each time point; 0 min, 15 min, 30 min, 60 min, 120, 240 min. […]

[10] = assay type: in vitro ADME, human; conditions: prodrug remaining, 5 μM, 37° C.
Experimental: as §5

In the case of COc1ccc([C@@]23CCC(=O)C[C@@H]2N(C)CC3)cc1OC [Mesembrine, 3a-(3,4-dimethoxyphenyl)-octahydro-1-methyl-6H-indol-6-one], the stability [1] is listed as “unstable”.
Work on COc1ccc([C@@]23CCC(=O)C[C@@H]2N(C)CC3)cc1OC (racemic) [Compound 001, (3aS,7aS)-3a-(3,4-dimethoxyphenyl)-1-methyl-2,3,4,5,7,7a-hexahydroindol-6-one, reference compound] yielded a half-life [2] of 17 min, a hepatocyte CLint [2] of 40 µL/min/1e6 cells and an AUClast (in vivo [3]) of 12.72 ng·h/g. The AUClast (in vivo [4]) was 411.95 ng·h/g, the AUClast ([5]; 001 (metabolite) in brain after 358 IV 2 mg/kg) was 190.88 ng·h/g and the half-life in plasma [6] was “less than 2 hours”.
For COc1ccc([C@@]23CCC(OC(=O)OC(C)(C)C)=C[C@@H]2N(C)CC3)cc1OC [Compound 358, [(3aS,7aS)-3a-(3,4-dimethoxyphenyl)-1-methyl-3,4,5,7a-tetrahydro-2H-indol-6-yl] tert-butyl carbonate], the “Condition 1 Conversion (%)” value ([7]; 1 min) was 0%, the “Condition 1 Conversion (%)” value ([7]; 5 min) was 0% and the “Condition 1 Conversion (%)” value ([7]; 30 min) was 0%. The “Condition 1 Conversion (%)” value ([7]; 1 h) was 5%, the “Condition 1 Conversion (%)” value ([7]; 4 h) was 100% and the “Condition 1 Conversion (%)” value ([7]; 24 h) was 100%. For the same compound, the “Condition 2 Conversion (%)” value ([8]; 1 min) was 0%, the “Condition 2 Conversion (%)” value ([8]; 5 min) was 0% and the “Condition 2 Conversion (%)” value ([8]; 30 min) was 0%. The “Condition 2 Conversion (%)” value ([8]; 1 h) was 0%, the “Condition 2 Conversion (%)” value ([8]; 4 h) was 83.46% and the “Condition 2 Conversion (%)” value ([8]; 24 h) was 100%. The “Mouse Plasma Prodrug (%)” value ([9]; 0 min) was 100%, the “Mouse Plasma Prodrug (%)” value ([9]; 15 min) was 14.8% and the “Mouse Plasma Prodrug (%)” value ([9]; 30 min) was 10.3%. The “Mouse Plasma Prodrug (%)” value ([9]; 60 min) was 5.4%, the “Mouse Plasma Prodrug (%)” value ([9]; 120 min) was 0.0% and the “Mouse Plasma Prodrug (%)” value ([9]; 240 min) was 0.0%. The “Human Plasma Prodrug (%)” value ([10]; 0 min) was 100%, the “Human Plasma Prodrug (%)” value ([10]; 15 min) was 75.4% and the “Human Plasma Prodrug (%)” value ([10]; 30 min) was 58.1%. For the same compound, the “Human Plasma Prodrug (%)” value ([10]; 60 min) was 35.5%, the “Human Plasma Prodrug (%)” value ([10]; 120 min) was 11.7% and the “Human Plasma Prodrug (%)” value ([10]; 240 min) was 0.7%. For the same compound, the “brain concentrations quantifiable up to” value ([5]; 358 after 358 IV 2 mg/kg) was ≤ 0.08 h, the concentration at 0.08 h ([5]; male, C57BL/6, mouse, brain, 358 after 358 IV 2 mg/kg, read-out: Brain concentrations (mean)) was 18.3 ng/g and the “plasma concentrations quantifiable up to” value ([5]; male, C57BL/6, mouse, in vivo, iv, 2 mg/kg) was “up to 0.25 h”. For the same compound, the concentration at 0.08 h ([5]; male, C57BL/6, mouse, plasma, 358 after 358 IV 2 mg/kg, read-out: Plasma concentrations (mean)) was 14.3 ng/mL and the concentration at 0.25 h ([5]; male, C57BL/6, mouse, plasma, 358 after 358 IV 2 mg/kg, 0.25 h, average of two values, read-out: Plasma concentrations (mean)) was 1.51 ng/mL.
